The values below come from the supplement of paper PMC10307832.

What all share (assay): relative viability (nuclei count vs DMSO), 5 days (fraction); higher = more cells survive
Compound in the assay “Cabozantinib + OSI-027”: COc1cc2nccc(Oc3ccc(NC(=O)C4(C(=O)Nc5ccc(F)cc5)CC4)cc3)c2cc1OC [Cabozantinib] + COc1cccc2cc(-c3nc([C@H]4CC[C@H](C(=O)O)CC4)n4ncnc(N)c34)[nH]c12 [OSI-027] (partner 0.5 µM)
The gist of the method:
(§1)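 A single step with final 0.05% Triton X-100, 1% formaldehyde and 1 ug/ml Hoechst fixed the cells and stained nuclei 5 days after treatment. Lung cancer cell lines in 1536-well plates had been treated by pin tool the day after seeding with one drug alone or a fixed anchor-drug dose plus five library-drug doses (not always all listed) in √10 steps, and nuclei were counted on 4× images. Relative viability is the ratio of nuclei in treated wells to nuclei in vehicle wells, taken as the median of duplicate plates.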

Compound in the assay “Zosuquidar + Pictilisib”: O[C@@H](COc1cccc2ncccc12)CN1CCN([C@@H]2c3ccccc3[C@@H]3[C@H](c4ccccc42)C3(F)F)CC1 [Zosuquidar] + CS(=O)(=O)N1CCN(Cc2cc3nc(-c4cccc5[nH]ncc45)nc(N4CCOCC4)c3s2)CC1 [Pictilisib] (partner 1 µM)
An outline of the steps: as §1

Compound in the assay “Zosuquidar + Vorinostat”: O[C@@H](COc1cccc2ncccc12)CN1CCN([C@@H]2c3ccccc3[C@@H]3[C@H](c4ccccc42)C3(F)F)CC1 [Zosuquidar] + O=C(CCCCCCC(=O)Nc1ccccc1)NO [Vorinostat] (partner 1 µM)
An outline of the steps:
as §1

Compound in the assay “Kobe2602 + Tozasertib”: C1=CC(=CC=C1NC(=S)NNC2=C(C=C(C=C2[N+](=O)[O-])C(F)(F)F)[N+](=O)[O-])F [Kobe2602] + Cc1cc(Nc2cc(N3CCN(C)CC3)nc(Sc3ccc(NC(=O)C4CC4)cc3)n2)n[nH]1 [Tozasertib] (partner 0.1 µM)
The gist of the method: as §1

On to RERF-LC-KJ, for which the relative viability is 0.498 in the assay with Cabozantinib + OSI-027 (first compound 0.02 µM); 0.623 with Cabozantinib + OSI-027 (first compound 0.06325 µM); 0.547 with Cabozantinib + OSI-027 (first compound 0.2 µM); 0.602 in the assay with Cabozantinib + OSI-027 (first compound 0.6325 µM); 0.645 in the assay with Cabozantinib + OSI-027 (first compound 2 µM); 0.467 with Zosuquidar + Pictilisib (first compound 0.01 µM). Moreover, the relative viability with Zosuquidar + Pictilisib (first compound 0.03162 µM) stood at 0.586; with Zosuquidar + Pictilisib (first compound 0.1 µM), 0.536; in the assay with Zosuquidar + Pictilisib (first compound 0.3162 µM), 0.679; with Zosuquidar + Pictilisib (first compound 1 µM), 0.57; in the assay with Zosuquidar + Vorinostat (first compound 0.01 µM), 0.728; with Zosuquidar + Vorinostat (first compound 0.03162 µM) it was 0.707. Besides, the relative viability with Zosuquidar + Vorinostat (first compound 0.1 µM) was determined as 0.694; with Zosuquidar + Vorinostat (first compound 0.3162 µM) it was 0.772; in the assay with Zosuquidar + Vorinostat (first compound 1 µM) it was 0.683; with Kobe2602 + Tozasertib (first compound 0.2 µM), 0.492; in the assay with Kobe2602 + Tozasertib (first compound 0.6325 µM), 0.528; with Kobe2602 + Tozasertib (first compound 2 µM), 0.473. The figures for the relative viability in the assay with Kobe2602 + Tozasertib (first compound 6.325 µM) and with Kobe2602 + Tozasertib (first compound 20 µM) were 0.285 and 0.271, respectively.
On to SK-LU-1, for which the relative viability in the assay with Cabozantinib + OSI-027 (first compound 0.02 µM) worked out at 0.3; with Cabozantinib + OSI-027 (first compound 0.06325 µM) it was 0.37; with Cabozantinib + OSI-027 (first compound 0.2 µM), 0.394; with Cabozantinib + OSI-027 (first compound 0.6325 µM) it was 0.298; with Cabozantinib + OSI-027 (first compound 2 µM), 0.312; with Zosuquidar + Pictilisib (first compound 0.01 µM), 0.552. Besides, the relative viability is 0.642 in the assay with Zosuquidar + Pictilisib (first compound 0.03162 µM); 0.567 with Zosuquidar + Pictilisib (first compound 0.1 µM); 0.689 with Zosuquidar + Pictilisib (first compound 0.3162 µM); 0.543 in the assay with Zosuquidar + Pictilisib (first compound 1 µM); 0.828 with Zosuquidar + Vorinostat (first compound 0.01 µM); 0.829 with Zosuquidar + Vorinostat (first compound 0.03162 µM). In addition, the relative viability in the assay with Zosuquidar + Vorinostat (first compound 0.1 µM) is 0.839; with Zosuquidar + Vorinostat (first compound 0.3162 µM), 0.926; with Zosuquidar + Vorinostat (first compound 1 µM), 0.761; with Kobe2602 + Tozasertib (first compound 0.2 µM) it was 0.31; in the assay with Kobe2602 + Tozasertib (first compound 0.6325 µM), 0.371; in the assay with Kobe2602 + Tozasertib (first compound 2 µM), 0.333. In addition, the relative viability in the assay with Kobe2602 + Tozasertib (first compound 6.325 µM) was determined as 0.372; with Kobe2602 + Tozasertib (first compound 20 µM), 0.357.
Turning to SK-MES-1, the relative viability came to 0.542 in the assay with Cabozantinib + OSI-027 (first compound 0.02 µM); 0.718 with Cabozantinib + OSI-027 (first compound 0.06325 µM); 0.649 with Cabozantinib + OSI-027 (first compound 0.2 µM); 0.665 with Cabozantinib + OSI-027 (first compound 0.6325 µM); 0.512 with Cabozantinib + OSI-027 (first compound 2 µM); 0.324 in the assay with Zosuquidar + Pictilisib (first compound 0.01 µM). Besides, the relative viability with Zosuquidar + Pictilisib (first compound 0.03162 µM) amounted to 0.324; in the assay with Zosuquidar + Pictilisib (first compound 0.1 µM), 0.33; with Zosuquidar + Pictilisib (first compound 0.3162 µM), 0.394; with Zosuquidar + Pictilisib (first compound 1 µM), 0.392; in the assay with Zosuquidar + Vorinostat (first compound 0.01 µM), 1.03; in the assay with Zosuquidar + Vorinostat (first compound 0.03162 µM), 1.06. In addition, the relative viability in the assay with Zosuquidar + Vorinostat (first compound 0.1 µM) was 0.929; with Zosuquidar + Vorinostat (first compound 0.3162 µM), 1.13; in the assay with Zosuquidar + Vorinostat (first compound 1 µM), 1.18; in the assay with Kobe2602 + Tozasertib (first compound 0.2 µM), 0.822; with Kobe2602 + Tozasertib (first compound 0.6325 µM), 0.878; with Kobe2602 + Tozasertib (first compound 2 µM) it was 0.791. Further, the relative viability in the assay with Kobe2602 + Tozasertib (first compound 6.325 µM) stood at 0.737; in the assay with Kobe2602 + Tozasertib (first compound 20 µM) it was 0.55.
With SW 1573, the relative viability with Cabozantinib + OSI-027 (first compound 0.02 µM) was 0.59; with Cabozantinib + OSI-027 (first compound 0.06325 µM), 0.891; with Cabozantinib + OSI-027 (first compound 0.2 µM) it was 0.669; in the assay with Cabozantinib + OSI-027 (first compound 0.6325 µM) it was 0.606; with Cabozantinib + OSI-027 (first compound 2 µM), 0.492; with Zosuquidar + Pictilisib (first compound 0.01 µM) it was 0.425. Moreover, the relative viability stood at 0.465 with Zosuquidar + Pictilisib (first compound 0.03162 µM); 0.446 with Zosuquidar + Pictilisib (first compound 0.1 µM); 0.626 in the assay with Zosuquidar + Pictilisib (first compound 0.3162 µM); 0.597 with Zosuquidar + Pictilisib (first compound 1 µM); 0.584 with Zosuquidar + Vorinostat (first compound 0.01 µM); 0.831 with Zosuquidar + Vorinostat (first compound 0.03162 µM). Further, the relative viability with Zosuquidar + Vorinostat (first compound 0.1 µM) came to 1.23; with Zosuquidar + Vorinostat (first compound 0.3162 µM), 0.851; with Zosuquidar + Vorinostat (first compound 1 µM), 0.928; with Kobe2602 + Tozasertib (first compound 0.2 µM), 0.194; with Kobe2602 + Tozasertib (first compound 0.6325 µM), 0.163; in the assay with Kobe2602 + Tozasertib (first compound 2 µM) it was 0.179. Further, the relative viability amounted to 0.271 in the assay with Kobe2602 + Tozasertib (first compound 6.325 µM) and 0.183 with Kobe2602 + Tozasertib (first compound 20 µM).
